{"source": "ChEMBL document CHEMBL3868595", "about": "“Plazomicin is effective in a non-human primate pneumonic plague model” (Bioorg Med Chem, 2016)", "key": {"African green monkey [1]": {"system": "African green monkey", "test": "Toxicity in African green monkey 7653 model infected with Yersinia pestis Colorado 92 assessed as serum gamma glutamyl-transferase level at 25 mg/kg, iv administered within 6 hrs post onset of sustained fever as 30 mins infusion for 10 days (reference value: 37 IU/L)", "format": "organism-based", "settings": "chlorocebus sabaeus, in vivo"}, "African green monkey [2]": {"system": "African green monkey", "test": "Toxicity in African green monkey B6408 model infected with Yersinia pestis Colorado 92 assessed as serum gamma glutamyl-transferase level at 25 mg/kg, iv administered within 6 hrs post onset of sustained fever as 30 mins infusion for 10 days (reference value: 53 IU/L)", "format": "organism-based", "settings": "chlorocebus sabaeus, in vivo"}, "Yersinia pestis [3]": {"system": "Yersinia pestis", "test": "Antibacterial activity against Yersinia pestis Colorado 92 infected in African green monkey B6889 model assessed as bacterial burden in spleen at 6.25 mg/kg, iv administered within 6 hrs post onset of sustained fever as 30 mins infusion for 5 days (reference value: 1.6 10^9CFU/g)", "format": "functional, CO92"}, "[4]": {"test": "Toxicity in African green monkey B6428 model infected with Yersinia pestis Colorado 92 assessed as total white blood cell count at 25 mg/kg, iv administered within 6 hrs post onset of sustained fever as 30 mins infusion for 10 days (reference value: 6.2 10^3/microL)", "format": "organism-based", "settings": "chlorocebus aethiops, in vivo"}, "Yersinia pestis [5]": {"system": "Yersinia pestis", "test": "Antibacterial activity against Yersinia pestis Colorado 92 infected in African green monkey B6988 model assessed as bacterial burden in blood at 6.25 mg/kg, iv administered within 6 hrs post onset of sustained fever as 30 mins infusion for 5 days (reference value: 1.2 10^7CFU/ml)", "format": "functional, CO92"}, "Yersinia pestis [6]": {"system": "Yersinia pestis", "test": "Antibacterial activity against Yersinia pestis Colorado 92 infected in African green monkey C2083 model assessed as bacterial burden in spleen at 12.5 mg/kg, iv administered within 6 hrs post onset of sustained fever as 30 mins infusion for 5 days (reference value: 1.6 10^9CFU/g)", "format": "functional, CO92"}, "Yersinia pestis [7]": {"system": "Yersinia pestis", "test": "Antibacterial activity against Yersinia pestis Colorado 92 infected in African green monkey assessed as improvement in survival of monkey at 6.25 to 25 mg/kg, iv administered within 6 hrs post onset of sustained fever as 30 mins infusion for 10 days", "format": "functional, organism-based", "settings": "CO92"}, "[8]": {"test": "AUC (0 to 24 hrs) in African green monkey blood at 25 mg/kg administered as iv infusion twice daily for 7 consecutive days measured on day 7 by LC-MS/MS analysis", "format": "ADME, organism-based", "design": "time < 24 hr, dose 25 mg/kg, route intravenous", "settings": "chlorocebus aethiops"}, "Yersinia pestis [9]": {"system": "Yersinia pestis", "test": "Antibacterial activity against Yersinia pestis Colorado 92 infected in African green monkey B6960 model assessed as bacterial burden in spleen at 6.25 mg/kg, iv administered within 6 hrs post onset of sustained fever as 30 mins infusion for 5 days (reference value: 1.6 10^9CFU/g)", "format": "functional, CO92"}, "Yersinia pestis [10]": {"system": "Yersinia pestis", "test": "Antibacterial activity against Yersinia pestis Colorado 92 infected in African green monkey B6872 model assessed as bacterial burden in lung at 25 mg/kg, iv administered within 6 hrs post onset of sustained fever as 30 mins infusion for 5 days (reference value: 7.7 10^8CFU/g)", "format": "functional, organism-based", "settings": "CO92"}, "Yersinia pestis [11]": {"system": "Yersinia pestis", "test": "Antibacterial activity against Yersinia pestis Colorado 92 infected in African green monkey B6106 model assessed as bacterial burden in blood at 25 mg/kg, iv administered within 6 hrs post onset of sustained fever as 30 mins infusion for 5 days (reference value: 1.2 10^7CFU/ml)", "format": "functional, CO92"}, "African green monkey [12]": {"system": "African green monkey", "test": "Toxicity in African green monkey 7972 model infected with Yersinia pestis Colorado 92 assessed as serum gamma glutamyl-transferase level at 25 mg/kg, iv administered within 6 hrs post onset of sustained fever as 30 mins infusion for 10 days (reference value: 46 IU/L)", "format": "organism-based", "settings": "chlorocebus sabaeus, in vivo"}, "Yersinia pestis [13]": {"system": "Yersinia pestis", "test": "Antibacterial activity against Yersinia pestis Colorado 92 infected in African green monkey B6960 model assessed as bacterial burden in liver at 6.25 mg/kg, iv administered within 6 hrs post onset of sustained fever as 30 mins infusion for 5 days (reference value: 5.2 10^8CFU/g)", "format": "functional, CO92"}, "African green monkey [14]": {"system": "African green monkey", "test": "Toxicity in African green monkey 7643 model infected with Yersinia pestis Colorado 92 assessed as serum creatinine level at 25 mg/kg, iv administered within 6 hrs post onset of sustained fever as 30 mins infusion for 10 days (reference value: 0.5 mg/dl)", "format": "organism-based", "settings": "chlorocebus sabaeus, in vivo"}, "Yersinia pestis [15]": {"system": "Yersinia pestis", "test": "Antibacterial activity against Yersinia pestis Colorado 92 infected in African green monkey C2083 model assessed as bacterial burden in tracheobronchial lymph nodes at 12.5 mg/kg, iv administered within 6 hrs post onset of sustained fever as 30 mins infusion for 5 days (reference value: 7.7 10^9CFU/g)", "format": "functional, CO92, Lymph node"}, "Yersinia pestis [16]": {"system": "Yersinia pestis", "test": "Antibacterial activity against Yersinia pestis Colorado 92 infected in African green monkey B6436 model assessed as bacterial burden in kidney at 25 mg/kg, iv administered within 6 hrs post onset of sustained fever as 30 mins infusion for 5 days (reference value: 7.1 10^7CFU/g)", "format": "functional, organism-based", "settings": "CO92"}, "African green monkey [17]": {"system": "African green monkey", "test": "Toxicity in African green monkey 7337 model infected with Yersinia pestis Colorado 92 assessed as blood urea nitrogen level at 25 mg/kg, iv administered within 6 hrs post onset of sustained fever as 30 mins infusion for 10 days (reference value: 15 mg/dl)", "format": "organism-based", "settings": "chlorocebus sabaeus, in vivo"}, "African green monkey [18]": {"system": "African green monkey", "test": "Toxicity in African green monkey B6127 model infected with Yersinia pestis Colorado 92 assessed as effect on serum electrolyte abnormality at 25 mg/kg, iv administered within 6 hrs post onset of sustained fever as 30 mins infusion for 10 days", "format": "organism-based", "settings": "chlorocebus sabaeus, in vivo"}, "Yersinia pestis [19]": {"system": "Yersinia pestis", "test": "Antibacterial activity against Yersinia pestis Colorado 92 infected in African green monkey B6889 model assessed as bacterial burden in liver at 6.25 mg/kg, iv administered within 6 hrs post onset of sustained fever as 30 mins infusion for 5 days (reference value: 5.2 10^8CFU/g)", "format": "functional, CO92"}, "Yersinia pestis [20]": {"system": "Yersinia pestis", "test": "Antibacterial activity against Yersinia pestis Colorado 92 infected in African green monkey B6127 model assessed as bacterial burden in spleen at 25 mg/kg, iv administered within 6 hrs post onset of sustained fever as 30 mins infusion for 10 days (reference value: 1.6 10^9CFU/g)", "format": "functional, organism-based", "settings": "CO92"}, "[21]": {"test": "Toxicity in African green monkey 7643 model infected with Yersinia pestis Colorado 92 assessed as total white blood cell count at 25 mg/kg, iv administered within 6 hrs post onset of sustained fever as 30 mins infusion for 10 days (reference value: 6.1 10^3/microL)", "format": "organism-based", "settings": "chlorocebus aethiops, in vivo"}, "Yersinia pestis [22]": {"system": "Yersinia pestis", "test": "Antibacterial activity against Yersinia pestis Colorado 92 infected in African green monkey B6106 model assessed as bacterial burden in kidney at 25 mg/kg, iv administered within 6 hrs post onset of sustained fever as 30 mins infusion for 5 days (reference value: 7.1 10^7CFU/g)", "format": "functional, CO92"}, "[23]": {"test": "Elimination half life in African green monkey blood at 35 mg/kg administered as iv infusion twice daily for 7 consecutive days measured on day 7 by LC-MS/MS analysis", "format": "ADME, organism-based", "settings": "chlorocebus aethiops, read-out: beta t1/2 (converted)"}, "African green monkey [24]": {"system": "African green monkey", "test": "Toxicity in African green monkey B6408 model infected with Yersinia pestis Colorado 92 assessed as serum creatinine level at 25 mg/kg, iv administered within 6 hrs post onset of sustained fever as 30 mins infusion for 10 days (reference value: 0.5 mg/dl)", "format": "organism-based", "settings": "chlorocebus sabaeus, in vivo"}, "Yersinia pestis [25]": {"system": "Yersinia pestis", "test": "Antibacterial activity against Yersinia pestis Colorado 92 infected in African green monkey B6960 model assessed as bacterial burden in heart at 6.25 mg/kg, iv administered within 6 hrs post onset of sustained fever as 30 mins infusion for 5 days (reference value: 2.6 10^7CFU/g)", "format": "functional, CO92"}, "African green monkey [26]": {"system": "African green monkey", "test": "Toxicity in African green monkey assessed as effect on serum creatinine level at 25 mg/kg administered as iv infusion twice daily for 7 consecutive days measured on day 7 by LC-MS/MS analysis", "format": "organism-based", "settings": "chlorocebus sabaeus, in vivo"}}, "note": "The source made the active and inactive calls. No cut-off for these calls is given here.", "data": [{"smiles": "CN[C@@H]1[C@@H](O)[C@@H](O[C@@H]2[C@@H](O)[C@H](O[C@H]3OC(CNCCO)=CC[C@H]3N)[C@@H](N)C[C@H]2NC(=O)[C@@H](O)CCN)OC[C@]1(C)O", "note": "[PLAZOMICIN]", "values": [{"measurement": "Activity", "setting": "African green monkey [1]", "value": 27, "unit": "IU/L"}, {"measurement": "Activity", "setting": "African green monkey [2]", "value": 56, "unit": "IU/L"}, {"measurement": "Activity", "setting": "Yersinia pestis [3]", "value": 6.2, "unit": "×10⁶ CFU/g"}, {"measurement": "Activity", "setting": "[4]", "value": 6, "unit": "×10³ /uL"}, {"measurement": "Activity", "setting": "Yersinia pestis [5]", "value": 11, "unit": "CFU/ml"}, {"measurement": "Activity", "setting": "Yersinia pestis [6]", "value": 1.5, "unit": "×10⁷ CFU/g"}, {"measurement": "Activity", "setting": "Yersinia pestis [7]", "value": "Active"}, {"measurement": "AUC at 24 h", "setting": "[8]", "value": 208, "unit": "µg·h/mL"}, {"measurement": "Activity", "setting": "Yersinia pestis [9]", "value": 23, "unit": "CFU/g"}, {"measurement": "Activity", "setting": "Yersinia pestis [10]", "value": "Below limit of detection"}, {"measurement": "Activity", "setting": "Yersinia pestis [11]", "value": 40, "unit": "CFU/ml"}, {"measurement": "Activity", "setting": "African green monkey [12]", "value": 38, "unit": "IU/L"}, {"measurement": "Activity", "setting": "Yersinia pestis [13]", "value": 38, "unit": "CFU/g"}, {"measurement": "Activity", "setting": "African green monkey [14]", "value": 0.4, "unit": "mg/dL"}, {"measurement": "Activity", "setting": "Yersinia pestis [15]", "value": 8, "unit": "×10⁹ CFU/g"}, {"measurement": "Activity", "setting": "Yersinia pestis [16]", "value": "Below limit of detection"}, {"measurement": "Activity", "setting": "African green monkey [17]", "value": 18, "unit": "mg/dL"}, {"measurement": "Activity", "setting": "African green monkey [18]", "value": "Toxic"}, {"measurement": "Activity", "setting": "Yersinia pestis [19]", "value": 2.2, "unit": "×10⁷ CFU/g"}, {"measurement": "Activity", "setting": "Yersinia pestis [20]", "value": "Below limit of detection"}, {"measurement": "Activity", "setting": "[21]", "value": 5.7, "unit": "×10³ /uL"}, {"measurement": "Activity", "setting": "Yersinia pestis [22]", "value": 17, "unit": "CFU/g"}, {"measurement": "half-life", "setting": "[23]", "value": 1.7, "unit": "h"}, {"measurement": "Activity", "setting": "African green monkey [24]", "value": 0.4, "unit": "mg/dL"}, {"measurement": "Activity", "setting": "Yersinia pestis [25]", "value": 1.2, "unit": "×10⁶ CFU/g"}, {"measurement": "Activity", "setting": "African green monkey [26]", "value": 0.55, "unit": "mg/dL"}]}]}
